# From patent publication US9284283B2, “Macrocyclic compounds for modulating IL-17” (ENSEMBLE THERAPEUTICS CORPORATION, priority 2012, dated 2016)
# How the values were obtained:
# [1] = target: T1, recombinant human IL17a (binding to its receptor IL17R) (Homo sapiens, UniProt Q16552); assay: IL-17 competition ELISA I (IL17a coated, IL17R/Fc binding)
# T1 construct: purchased R&D Systems 317-ILB (IL17a); 177-IR (IL17R/Fc)
# T1 sequence (Q16552 20-155 limits assumed): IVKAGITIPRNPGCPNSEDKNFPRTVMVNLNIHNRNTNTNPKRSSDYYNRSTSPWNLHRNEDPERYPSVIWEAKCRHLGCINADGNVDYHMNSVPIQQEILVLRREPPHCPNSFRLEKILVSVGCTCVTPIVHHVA
# Method in brief: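 Plates coated with 20 nM recombinant human IL17a received compound dilutions and 12 nM IL17R/Fc (final) for 30 min at room temperature. Bound receptor was detected with HRP anti-human Fc and TMB, read at 450 nm. IC50 came from a 4-parameter logistic fit between no-competitor and blank controls.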
# IL17A = target: T2, IL17A (Homo sapiens, UniProt Q16552); assay: Surface Plasmon Resonance (SPR) analysis of compound interactions with IL17A; settings: SPR binding to IL17A
# T2 sequence (Q16552 24-155): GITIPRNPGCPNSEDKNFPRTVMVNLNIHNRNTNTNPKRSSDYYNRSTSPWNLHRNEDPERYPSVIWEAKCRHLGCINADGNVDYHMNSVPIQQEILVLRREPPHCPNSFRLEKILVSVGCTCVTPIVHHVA
# Description: SPR analysis was carried out with a GE Healthcare (Piscataway, N.J.) Biacore X100 system. Typically, the chip (NTA Biacore Biosensor chip; GE Healthcare BR-1000-34) was first conditioned by injection of 0.35 M EDTA, which also served to remove any immobilized proteins from previous runs. Before immobilization of the recombinant 6-His-tagged IL17, the chip was washed with 0.5 mM nickel chloride in NTA buffer (10 mM HEPES buffer, 0.15 M sodium chloride, 10 μM ethylene diamine tetraacetic acid, 0.005% v/v surfactant P20 (GE Healthcare BR-1000-54)) to form a nickel chelate on the chip. IL17 protein was immobilized onto a NTA chip through its 6-His tag. IL17A was typically injected at 0.25 μM for 60-120 seconds, followed by a stabilization step washing with NTA+0.5% DMSO for 120 seconds or longer.
# Five 2-fold or 3-fold serial dilutions of test compound were injected serially onto the chip. All steps were conducted using NTA buffer containing 0.5% v/v dimethylsulfoxide (DMSO). Compounds were diluted from stock solutions of 10 mM concentration in 100% DMSO with NTA buffer to obtain 50 μM solutions in NTA+0.5% DMSO. Subsequent 2× or 3× dilutions were made in NTA+0.5% DMSO. Compound was generally injected for 180 seconds followed by washing the chip in buffer alone for 120 seconds. The rate of refractive index change (RU units/time) and the maximum extend of RU change was measured during the “on” phase of analyte injection, followed by measuring the rate during the “off” phase.
# Kinetic parameter fits were conducted using the Biacore SPR Evaluation Program (GE Healthcare) for 1:1 molecular binding fits, after subtracting the baseline average of 2 or more runs in which no analyte was injected. This program then reports the best fit average for the “on” rate (Ka), the “off” rate (Kd) and the dissociation constant (KD) (Chaiken, I et al., Anal Biochem 201, 197-210 (1992)). A separate program in the Biacore SPR Evaluation Program then calculates the best fit for Kd based upon the extent of binding alone (RU units bound) at each concentration of analyte and reports the best fit Kd by best fit to a Lineweaver-Burke plot. Typically, the Kd value calculated through both means agreed within a factor of three.
# The presence and activity of IL17 on the NTA chip was routinely confirmed three ways: • 1) An increase in response units (RU) upon immobilization confirms that the IL17 was immobilized on the chip; • 2) Anti-IL17 was also injected on the chip to confirm the presence of IL17; and • 3) IL17R was injected onto the chip to confirm that the immobilized IL17 retained its binding activity for its receptor. Negative controls to access specificity for compound binding were conducted by immobilizing unrelated, but his-tagged, proteins (such as cyclophilin D) and conducting the same analysis as done with IL17A.
# [2] = test system: IL-17A induced secretion of IL-6 in primary human RASF cells; assay: Inhibition of IL17A induced secretion of IL6 in human rheumatoid arthritis synovial fibroblast (RASF) cells; format: cell-based; settings: Homo sapiens, Fibroblast
# Method in brief: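 Primary RASF cells (passage 2-8) stimulated 20 h at 37 °C with rhIL-17A (30 ng/mL) pre-incubated 1 h with compound (final 0.03-25 μM, 0.25% DMSO). Supernatant IL-6 measured by ELISA, normalized to WST1 viability; triplicates.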
# [3] = target: T3, biotinylated human IL-17 (binding to IL17R/Fc) (Homo sapiens, UniProt Q16552); assay: IL-17 competition ELISA II (captured IL17R/Fc, biotinylated IL-17)
# T3 construct: purchased R&D Systems 317-ILB (IL-17, biotinylated); 177-IR (IL17R/Fc)
# T3 sequence (Q16552 20-155 limits assumed): T1 sequence (Q16552 20-155 limits assumed)
# Method in brief: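 Competition read-out: absorbance at 450 nm after streptavidin-HRP/TMB detection, fitted to a 4-parameter logistic model bounded by no-competitor and blank wells to give IC50. Compound was serially diluted 5-fold from 1 μM alongside 20 nM (stock) biotinylated IL-17 on IL17R/Fc (10 nM) captured via goat anti-human IgG, 30 min at room temperature.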
SMILES,IC50 [1] [nM],Kd (IL17A) [nM],IC50 [3] [nM],IC50 [2] [nM]
O=C1CNC(=O)[C@@H](Cc2ccc(NC(=O)[C@H](Cc3ccc(Br)s3)NC(=O)Cc3ccccc3)cc2)NC(=O)CC2(CCCC2)CC(=O)OCCCCCN1 [Compound 225],1000 to 10000,100 to 1000,,
CN1CC(=O)NCCCCCNC(=O)CC2(CCCC2)CC(=O)N[C@H](Cc2ccc(NC(=O)[C@H](Cc3ccccc3Cl)NC(=O)Cc3ccccc3)cc2)C1=O [Compound 188],1000 to 10000,100 to 1000,,
O=C1CNC(=O)[C@@H](Cc2ccc(NC(=O)[C@H](Cc3ccc(Cl)c(Cl)c3)NC(=O)Cc3ccccc3)cc2)NC(=O)CC2(CCCC2)CC(=O)OCCCCCN1 [Compound 224],1000 to 10000,100 to 1000,,
O=C1CNC(=O)[C@@H](Cc2ccc(NC(=O)[C@H](Cc3ccccc3Cl)NC(=O)c3cnccn3)cc2)NC(=O)CC2(CCCC2)CC(=O)NCCCCCN1 [Compound 200],100 to 1000,100 to 1000,,
O=C1CNC(=O)[C@@H](Cc2ccc(NC(=O)[C@H](Cc3cscn3)NC(=O)Cc3ccccc3)cc2)NC(=O)CC2(CCCC2)CC(=O)NCCCCCN1 [Compound 232],1000 to 10000,100 to 1000,,
O=C1CNC(=O)[C@@H](Cc2ccc(NC(=O)[C@H](Cc3cccc(Cl)c3)NC(=O)Cc3ccccc3)cc2)NC(=O)CC2(CCCC2)CC(=O)OCCCCCN1 [Compound 212],100 to 1000,100 to 1000,,
CC(C)(C)[C@H](NC(=O)Cc1ccccc1)C(=O)Nc1ccc(C[C@H]2NC(=O)CC3(CCCC3)CC(=O)NCCCCCNC(=O)CNC2=O)cc1 [Compound 231],,100 to 1000,100 to 1000,
O=C1CCCC(=O)N[C@H](Cc2ccc(NC(=O)[C@H](Cc3ccccc3Cl)NC(=O)Cc3ccccc3)cc2)C(=O)NCC(=O)NCCCCCN1 [Compound 221],1000 to 10000,100 to 1000,,
O=C1CNC(=O)[C@@H](Cc2ccc(NC(=O)[C@H](Cc3ccc(O)cc3)NC(=O)Cc3ccccc3)cc2)NC(=O)CC2(CCCC2)CC(=O)NCCCCCN1 [Compound 183],1000 to 10000,100 to 1000,,
O=C1CC2(CCCC2)CC(=O)N[C@H](Cc2ccc(NC(=O)[C@H](Cc3ccccc3F)NC(=O)Cc3ccccc3)cc2)C(=O)NCCCC[C@@H](C(=O)O)N1 [Compound 179],,100 to 1000,< 100,
O=C1CNC(=O)[C@@H](Cc2ccc(NC(=O)[C@H](Cc3ccccc3Cl)NC(=O)c3ccccn3)cc2)NC(=O)CC2(CCCC2)CC(=O)NCCCCCN1 [Compound 195],100 to 1000,100 to 1000,< 100,
O=C1CNC(=O)[C@@H](Cc2ccc(NC(=O)[C@H](Cc3ccc(Cl)cc3)NC(=O)Cc3ccccc3)cc2)NC(=O)CC2(CCCC2)CC(=O)OCCCCCN1 [Compound 213],> 10000,100 to 1000,,
COC(=O)[C@@H]1CCCCNC(=O)CCCNC(=O)[C@@H](Cc2ccc(NC(=O)[C@H](Cc3ccccc3)NC(=O)c3ccccc3)cc2)NC(=O)CC2(CCCC2)CC(=O)N1 [Compound 115],,100 to 1000,,

# Continued, in another order:
IC50 [1] [nM],Kd (IL17A) [nM],IC50 [3] [nM],SMILES,IC50 [2] [nM]
100 to 1000,< 100,,O=C1CNC(=O)[C@@H](Cc2ccc(NC(=O)[C@H](Cc3ccccc3Cl)NC(=O)c3ccccc3Cl)cc2)NC(=O)CC2(CCCC2)CC(=O)NCCCCCN1 [Compound 204],
< 100,< 100,,CC1(C)CC(=O)NCCCCCNC(=O)CNC(=O)[C@@H](Cc2ccc(NC(=O)[C@H](Cc3ccccc3Cl)NC(=O)Cc3ccccc3)cc2)NC(=O)C1 [Compound 222],
< 100,< 100,,O=C1CNC(=O)[C@@H](Cc2ccc(NC(=O)[C@H](Cc3ccccc3Cl)NC(=O)c3ccccc3F)cc2)NC(=O)CC2(CCCC2)CC(=O)NCCCCCN1 [Compound 203],
< 100,< 100,,O=C1CNC(=O)[C@@H](Cc2ccc(NC(=O)[C@H](Cc3ccccc3Cl)NC(=O)c3ccc(Cl)cc3)cc2)NC(=O)CC2(CCCC2)CC(=O)NCCCCCN1 [Compound 205],
100 to 1000,< 100,,O=C1CNC(=O)[C@@H](Cc2ccc(NC(=O)[C@H](Cc3csc4ccccc34)NC(=O)Cc3ccccc3)cc2)NC(=O)CC2(CCCC2)CC(=O)NCCCCCN1 [Compound 233],
100 to 1000,< 100,,CN1CC(=O)NCCCCCNC(=O)CC2(CCCC2)CC(=O)N[C@H](Cc2ccc(NC(=O)[C@H](Cc3ccccc3Cl)NC(=O)Cc3ccc(O)cc3)cc2)C1=O [Compound 193],
< 100,< 100,,O=C1CNC(=O)[C@@H](Cc2ccc(NC(=O)[C@H](Cc3ccccc3Cl)NC(=O)c3cccc(O)c3)cc2)NC(=O)CC2(CCCC2)CC(=O)NCCCCCN1 [Compound 214],
< 100,< 100,,O=C1CCCNC(=O)[C@@H](Cc2ccc(NC(=O)[C@H](Cc3ccccc3Cl)NC(=O)Cc3ccccc3)cc2)NC(=O)CC2(CCCC2)CC(=O)NCCCN1 [Compound 158],
,< 100,,O=C1CNC(=O)[C@@H](Cc2ccc(NC(=O)[C@H](Cc3ccccc3Cl)NC(=O)Cc3ccccc3)cc2)NC(=O)CC2(CCCC2)CC(=O)N(CCO)CCCCCN1 [Compound 168],1000 to 10000
< 100,< 100,,O=C1CNC(=O)[C@@H](Cc2ccc(NC(=O)[C@H](Cc3ccco3)NC(=O)Cc3ccccc3)cc2)NC(=O)CC2(CCCC2)CC(=O)NCCCCCN1 [Compound 230],
< 100,< 100,,O=C1CCNC(=O)[C@@H](Cc2ccc(NC(=O)[C@H](Cc3ccccc3Cl)NC(=O)Cc3ccccc3)cc2)NC(=O)CC2(CCCC2)CC(=O)NCCCCN1 [Compound 164],
< 100,< 100,,O=C1CNC(=O)[C@@H](Cc2ccc(NC(=O)[C@H](Cc3cccs3)NC(=O)Cc3ccccc3)cc2)NC(=O)CC2(CCCC2)CC(=O)NCCCCCN1 [Compound 228],
< 100,< 100,,O=C1CNC(=O)[C@@H](Cc2ccc(NC(=O)[C@H](Cc3ccccc3Cl)NC(=O)Cc3ccncc3)cc2)NC(=O)CC2(CCCC2)CC(=O)NCCCCCN1 [Compound 202],
< 100,< 100,,O=C1CNC(=O)[C@@H](Cc2ccc(NC(=O)[C@H](Cc3ccccc3Cl)NC(=O)Cc3ccccc3)cc2)NC(=O)CC2(CCCCC2)CC(=O)NCCCCCN1 [Compound 223],
100 to 1000,< 100,,O=C1CNC(=O)[C@@H](Cc2ccc(NC(=O)[C@H](Cc3ccccc3Cl)NC(=O)C3CCCCC3)cc2)NC(=O)CC2(CCCC2)CC(=O)NCCCCCN1 [Compound 207],
